# Results from ChEMBL document CHEMBL2150907, “BACE-Inhibitors: Potential Treatment of Alzheimer Disease, Dementia, and Related Neurodegenerative Diseases. C. Spiro-Heterocyclic Derivatives: Patent Highlight” (ACS Med Chem Lett, 2012).
# Molecular target: Beta-secretase 1 (Homo sapiens, UniProt P56817)
# Experiment: Inhibition of BACE1-mediated amyloid beta (1 to 40) production after 48 hrs by cell based HTRF immunoassay
# Beta-secretase 1, sequence (P56817 whole entry): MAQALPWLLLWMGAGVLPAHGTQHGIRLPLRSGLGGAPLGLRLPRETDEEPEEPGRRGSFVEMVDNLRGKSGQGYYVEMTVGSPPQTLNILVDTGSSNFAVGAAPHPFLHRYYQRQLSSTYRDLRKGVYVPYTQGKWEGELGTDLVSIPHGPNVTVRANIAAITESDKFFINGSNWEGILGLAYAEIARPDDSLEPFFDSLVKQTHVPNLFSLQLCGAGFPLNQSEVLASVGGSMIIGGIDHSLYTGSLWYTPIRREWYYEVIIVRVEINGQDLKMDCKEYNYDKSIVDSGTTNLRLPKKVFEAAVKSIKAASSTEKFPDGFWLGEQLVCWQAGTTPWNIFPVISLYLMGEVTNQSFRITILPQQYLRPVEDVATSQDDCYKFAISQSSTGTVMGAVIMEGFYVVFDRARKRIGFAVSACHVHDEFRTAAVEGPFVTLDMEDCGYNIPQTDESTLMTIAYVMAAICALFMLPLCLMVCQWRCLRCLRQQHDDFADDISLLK
row,IC50,Structure (SMILES)
1,3080 nM,CN1C(=O)CC2(N=C1N)c1cc(-c3cc(F)cc(Cl)c3)ccc1OC1CC3(CC[C@@H]12)OCCO3 (stereo partly drawn)
2,8.9 nM,NC1=N[C@]2(CO1)c1cc(-c3cncc(Cl)c3)ccc1OC1OC[C@H](OCC3CC3)C[C@@H]12 (mixture of isomers)
3,7.8 nM,"NC1=N[C@@]2(CO1)c1cc(-c3cncc(Cl)c3)ccc1OC1OC[C@H](OCC3CC3)C[C@@H]12 (single isomer, unassigned)"
